Test results from PubChem BioAssay AID248 (DTP/NCI, 2004).
“And” between values parts separate entries of the source, which are not always exact repeats. Identical values can stand only once. Inconclusive results and toxic doses are left out. Cut-off read from the data, not from the text of the source: active = T/C of 150% or more; inactive = T/C below 125%.

System: L1210 leukemia ip in BDF1 mice, survival T/C
Assay: NCI In Vivo Anticancer Drug Screen. Data for tumor model L1210 Leukemia (intraperitoneal) in B6D2F1 (BDF1) mice
Conditions: endpoint: mean survival time, higher = longer survival
How it was run: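 Tumor cells were implanted, animals were treated, and survival was followed. The result divides the treated measurement by the vehicle-control measurement.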

[1] = dose: 100.0 mg/kg/injection, schedule: Q01DX009 (ip), vehicle: saline
[2] = dose: 200.0 mg/kg/injection, schedule: Q01DX009 (ip), vehicle: saline
[3] = dose: 100.0 mg/kg/injection, schedule: Q04DX003 (ip), vehicle: saline with Tween-80
[4] = dose: 200.0 mg/kg/injection, schedule: Q04DX003 (ip), vehicle: saline with Tween-80
[5] = dose: 400.0 mg/kg/injection, schedule: Q04DX003 (ip), vehicle: saline with Tween-80
[6] = dose: 100.0 mg/kg/injection, schedule: Q01DX009 (ip), vehicle: Klucel (hydroxypropylcellulose) (HPC)
[7] = dose: 200.0 mg/kg/injection, schedule: Q01DX009 (ip), vehicle: Klucel (hydroxypropylcellulose) (HPC)
[8] = dose: 400.0 mg/kg/injection, schedule: Q01DX009 (ip), vehicle: Klucel (hydroxypropylcellulose) (HPC)
[9] = dose: 100.0 mg/kg/injection, schedule: Q04DX003 (ip), vehicle: saline
[10] = dose: 200.0 mg/kg/injection, schedule: Q04DX003 (ip), vehicle: saline
[11] = dose: 400.0 mg/kg/injection, schedule: Q04DX003 (ip), vehicle: saline

Measured: T/C

CCCCNC(=O)OC/C=C/CC(Cl)(Cl)Cl
inactive: dose: 100.0 mg/kg/injection, schedule: Q01DX009 (sc), vehicle: olive oil, sesame oil, peanut oil 103 % of control | dose: 100.0 mg/kg/injection, schedule: Q04DX003 (sc), vehicle: olive oil, sesame oil, peanut oil 95 % of control | dose: 200.0 mg/kg/injection, schedule: Q01DX009 (sc), vehicle: olive oil, sesame oil, peanut oil 101 % of control | dose: 200.0 mg/kg/injection, schedule: Q04DX003 (sc), vehicle: olive oil, sesame oil, peanut oil 108 % of control | dose: 400.0 mg/kg/injection, schedule: Q01DX009 (sc), vehicle: olive oil, sesame oil, peanut oil 101 % of control | dose: 400.0 mg/kg/injection, schedule: Q04DX003 (sc), vehicle: olive oil, sesame oil, peanut oil 94 % of control

C1OC1C[N+]12CN3CN(CN(C3)C1)C2 (stereo not drawn)
inactive: dose: 100.0 mg/kg/injection, schedule: Q01DX005 (ip), vehicle: saline 92 % of control | [1] 109 % of control | dose: 200.0 mg/kg/injection, schedule: Q01DX005 (ip), vehicle: saline 113 % of control | [2] 106 % of control | dose: 400.0 mg/kg/injection, schedule: Q01DX005 (ip), vehicle: saline 103 % of control

COc1cc(I)cc(OC)c1OC
inactive: [3] 97 % of control | [4] 94 % of control | [5] 100 % of control

O=C(O)c1cc2ccccc2cn1
inactive: dose: 100.0 mg/kg/injection, schedule: Q04DX002 (ip), vehicle: saline 102 % of control | dose: 200.0 mg/kg/injection, schedule: Q04DX002 (ip), vehicle: saline 93 % of control

c1ccc2c(c1)CCc1ccccc1CNC2
inactive: dose: 25.0 mg/kg/injection, schedule: Q04DX002 (ip), vehicle: Klucel (hydroxypropylcellulose) (HPC) 111 % of control | dose: 50.0 mg/kg/injection, schedule: Q04DX002 (ip), vehicle: Klucel (hydroxypropylcellulose) (HPC) 106 % of control

CC(C)(C)c1cc(CO)cc(C(C)(C)C)c1O
inactive: [6] 108 % of control | dose: 100.0 mg/kg/injection, schedule: Q04DX003 (ip), vehicle: Klucel (hydroxypropylcellulose) (HPC) 91 % of control | [7] 100 % of control | dose: 200.0 mg/kg/injection, schedule: Q04DX003 (ip), vehicle: Klucel (hydroxypropylcellulose) (HPC) 92 % of control | [8] 96 % of control | dose: 400.0 mg/kg/injection, schedule: Q04DX003 (ip), vehicle: Klucel (hydroxypropylcellulose) (HPC) 105 % of control

ClC12CC3CC(CC(C3)C1)C2
inactive: dose: 100.0 mg/kg/injection, schedule: Q01DX009 (ip), vehicle: acetone 92 % of control | dose: 100.0 mg/kg/injection, schedule: Q04DX003 (ip), vehicle: acetone 91 % of control | dose: 200.0 mg/kg/injection, schedule: Q01DX009 (ip), vehicle: acetone 95 % of control and 91 % of control | dose: 200.0 mg/kg/injection, schedule: Q04DX003 (ip), vehicle: acetone 98 % of control | dose: 400.0 mg/kg/injection, schedule: Q01DX009 (ip), vehicle: acetone 93 % of control | dose: 400.0 mg/kg/injection, schedule: Q04DX003 (ip), vehicle: acetone 88 % of control

NC(=O)Cn1cnc2c(Cl)ncnc21
inactive: [3] 104 % of control | [4] 102 % of control | [5] 120 % of control

CC1Cc2c(n[nH]c2CC2CC(=O)NC(=O)C2)C(C)C1 (stereo not drawn)
inactive: dose: 100.0 mg/kg/injection, schedule: Q01DX001 (ip), vehicle: carboxymethylcellulose (CMC) 100 % of control | dose: 200.0 mg/kg/injection, schedule: Q01DX001 (ip), vehicle: carboxymethylcellulose (CMC) 97 % of control | dose: 400.0 mg/kg/injection, schedule: Q01DX001 (ip), vehicle: carboxymethylcellulose (CMC) 101 % of control

CCOc1cc(OCC)c(OCC)cc1/C=C1\N=C(c2ccccc2)OC1=O
inactive: dose: 100.0 mg/kg/injection, schedule: Q04DX002 (ip), vehicle: Klucel (hydroxypropylcellulose) (HPC) 96 % of control | dose: 200.0 mg/kg/injection, schedule: Q04DX002 (ip), vehicle: Klucel (hydroxypropylcellulose) (HPC) 96 % of control | dose: 400.0 mg/kg/injection, schedule: Q04DX002 (ip), vehicle: Klucel (hydroxypropylcellulose) (HPC) 96 % of control

Cc1ccc(Cl)cc1NC(=O)c1ccccc1Cl
inactive: [6] 100 % of control | [1] 100 % of control | [9] 95 % of control | [7] 94 % of control | [2] 105 % of control | [10] 122 % of control | [8] 87 % of control | dose: 400.0 mg/kg/injection, schedule: Q01DX009 (ip), vehicle: saline 100 % of control | [11] 111 % of control

C[N+](C)(CCNCc1ccccc1)Cc1ccccc1
inactive: dose: 100.0 mg/kg/injection, schedule: Q01DX001 (ip), vehicle: saline 102 % of control | dose: 200.0 mg/kg/injection, schedule: Q01DX001 (ip), vehicle: saline 100 % of control | dose: 400.0 mg/kg/injection, schedule: Q01DX001 (ip), vehicle: saline 100 % of control

CCOP(=S)(OCC)OCCN(CC)CC
inactive: dose: 5.0 mg/kg/injection, schedule: Q01DX001 (ip), vehicle: saline 101 % of control | dose: 10.0 mg/kg/injection, schedule: Q01DX001 (ip), vehicle: saline 105 % of control | dose: 20.0 mg/kg/injection, schedule: Q01DX001 (ip), vehicle: saline 105 % of control

COc1ccc(C[Si](C)C)cc1
inactive: [9] 93 % of control | [10] 98 % of control | [11] 94 % of control

COc1cc(O)c(OC(C)=O)cc1OC
inactive: dose: 100.0 mg/kg/injection, schedule: Q01DX001 (ip), vehicle: gum acacia 97 % of control | dose: 200.0 mg/kg/injection, schedule: Q01DX001 (ip), vehicle: gum acacia 97 % of control | dose: 400.0 mg/kg/injection, schedule: Q01DX001 (ip), vehicle: gum acacia 117 % of control

COC(=O)C(CC(C)C)NC(=O)C(Cc1ccc(Oc2ccc([N+](=O)[O-])cc2[N+](=O)[O-])cc1)NC=O (stereo not drawn)
inactive: dose: 25.0 mg/kg/injection, schedule: Q01DX009 (ip), vehicle: water 104 % of control | dose: 50.0 mg/kg/injection, schedule: Q01DX009 (ip), vehicle: water 98 % of control | dose: 100.0 mg/kg/injection, schedule: Q01DX009 (ip), vehicle: water 102 % of control | dose: 200.0 mg/kg/injection, schedule: Q01DX009 (ip), vehicle: water 91 % of control | dose: 400.0 mg/kg/injection, schedule: Q01DX009 (ip), vehicle: water 97 % of control

CC1C(c2ccccc2)N1P(I)(c1ccccc1)(c1ccccc1)c1ccccc1 (stereo not drawn)
inactive: dose: 15.0 mg/kg/injection, schedule: Q01DX001 (ip), vehicle: carboxymethylcellulose (CMC) 116 % of control

CCOC(=O)c1ccc(NC(=O)Cn2cnc3c(=S)nc[nH]c32)cc1
inactive: dose: 25.0 mg/kg/injection, schedule: Q01DX001 (ip), vehicle: Klucel (hydroxypropylcellulose) (HPC) 92 % of control | dose: 50.0 mg/kg/injection, schedule: Q01DX001 (ip), vehicle: Klucel (hydroxypropylcellulose) (HPC) 106 % of control | dose: 100.0 mg/kg/injection, schedule: Q01DX001 (ip), vehicle: Klucel (hydroxypropylcellulose) (HPC) 95 % of control

CCCCN(CCCC)CCCN1C(=O)c2ccccc2S1(=O)=O
inactive: dose: 44.0 mg/kg/injection, schedule: Q01DX Z (ip), vehicle: methylcellulose (MC) 96 % of control | dose: 66.0 mg/kg/injection, schedule: Q01DX Z (ip), vehicle: methylcellulose (MC) 100 % of control | dose: 100.0 mg/kg/injection, schedule: Q01DX Z (ip), vehicle: methylcellulose (MC) 96 % of control

C#CC(O)(c1ccccc1)c1ccc(N(C)C)cc1 (stereo not drawn)
inactive: [3] 98 % of control | [4] 100 % of control | [5] 89 % of control

[Br][La]([Br])[Br]
inactive: [9] 89 % of control | [10] 91 % of control | [11] 91 % of control
